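96-well plates; 48 h exposure; 5 concentrations. Endpoints by linear interpolation between flanking doses. Not reached: highest tested concentration assigned. The concentration for full growth arrest is given as TGI.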
Tests used:
Assay in all cases: NCI tumour cell line growth inhibition, 48 h
DLD-1 colon = test system: DLD-1 colon
DMS 273 small cell lung = test system: DMS 273 small cell lung
HOP-18 NSCLC = test system: HOP-18 NSCLC
KM20L2 colon = test system: KM20L2 colon
RXF-631 renal = test system: RXF-631 renal
SNB-78 CNS = test system: SNB-78 CNS
XF 498 CNS = test system: XF 498 CNS
DMS 114 small cell lung = test system: DMS 114 small cell lung
M19-MEL melanoma = test system: M19-MEL melanoma

Row | SMILES | TGI (DLD-1 colon) [µM] | TGI (DMS 273 small cell lung) [µM] | TGI (HOP-18 NSCLC) [µM] | TGI (KM20L2 colon) [µM] | TGI (RXF-631 renal) [µM] | TGI (SNB-78 CNS) [µM] | TGI (XF 498 CNS) [µM] | TGI (DMS 114 small cell lung) [µM] | TGI (M19-MEL melanoma) [µM]
1 | CC1(C)C2C=CC1C(=O)CC2 (centres undefined) | > 100 | > 100 | > 100 | > 100 | > 100 | > 100 | > 100 |  | 
2 | CN(C)CC/[N+]([O-])=C(/c1ccccc1)C12CC3CC(CC(C3)C1)C2 | 32 |  | 35.6 | 24.5 | 32.8 | 41.8 | 25.9 | 36 | 27.2
3 | O=C(O)CCc1nn2c(nc1=O)sc1ccc3ccccc3c12 | > 100 | > 100 | > 100 | > 100 | > 100 | > 100 | > 100 | > 100 | > 100
4 | CC(=O)C1=C(O)CC2CC3c4[nH]c5ccccc5c4CCN3CC2C1 (centres undefined) | > 100 | > 100 | > 100 | > 100 |  | > 100 | > 100 | > 100 | 
5 | Cc1cccc(C)c1NC(=O)C(=O)Nn1c(NN)nc2ccccc2c1=O |  | > 100 | > 100 | > 100 | > 100 | > 100 |  | > 100 | > 100
6 | N#CC1(C#N)C(C#N)(C#N)C12CCCCCC2 | 10.3 | 52.4 | 30.3 | 32 |  | 38.5 |  | 43.2 | 47.9
7 | COc1ccc(C2ON(c3cccc(C)n3)CC=C2C)cc1 (centres undefined) | > 100 | > 100 | > 100 | > 100 | > 100 | > 100 | > 100 | > 100 | > 100
8 | Cc1cccc(NC(=O)c2cccc([N+](=O)[O-])c2O)c1C | > 100 | 97.7 | > 100 | 83.2 |  | > 100 | 61 | > 100 | 79.1
9 | NC(N)=NS(=O)(=O)c1ccc(Nc2c3ccccc3nc3c(C(=O)Nc4ccc(S(N)(=O)=O)cc4)cccc23)cc1 | > 100 | > 100 | > 100 | > 100 |  | > 100 | 69.8 | > 100 | > 100
10 | C=CCC1C(=O)CC2(C)CC(=O)C(CC=C)C12C (centres undefined) | > 100 | > 100 | > 100 | > 100 |  | > 100 | > 100 | > 100 | > 100
11 | Cn1cc(C(=O)C[n+]2ccccc2)c2ccccc21 | > 100 | > 100 |  | > 100 |  |  | > 100 | > 100 | > 100
12 | O=c1c2cc(Cl)ccc2sc2cccc(Cl)c12 |  | > 100 |  | > 100 | > 100 | > 100 |  |  | > 100
13 | Clc1ccc(C(n2cc(Br)cn2)n2cc(Br)cn2)cc1 |  | 36.8 | 34.4 |  |  | 44.4 |  |  | 32.6
14 | CCN(CC)c1ccc(N=Nc2ccc(-c3nc4ccc[n+](C)c4o3)cc2)cc1 | 20.1 | 23.3 | 38.3 | 25.9 | > 100 | 32.6 | 23.5 | 15.8 | 16.3
15 | COc1cccc(NC(=O)/C(Cc2nc3ccccc3nc2C)=N/NC(=O)C[n+]2ccccc2)c1 | > 100 | > 100 | > 100 | > 100 |  | > 100 | > 100 | > 100 | > 100
16 | O=C(NC12CC3CC(CC(C3)C1)C2)C(=O)c1c[nH]c2ccccc12 |  | 29.6 |  | 19.7 |  | 40.3 | 25.7 | 36 | 36.2
17 | CCOC(=O)c1[nH]c(COC(C)=O)c2c1CCCCCCCCCC2 | > 100 | > 100 | > 100 | > 100 |  | > 100 | > 100 | > 100 | > 100
18 | COC(=O)Nc1nc2ccc(Br)cc2[nH]1 | > 100 | > 100 | > 100 | 64.1 |  | > 100 | 86.5 | > 100 | > 100
19 | CC1OC(n2cc(F)c(=O)[nH]c2=O)C=CC1=O (centres undefined) | 36 | 36.1 | 34.1 | 34.6 | > 100 | 37.1 |  | 32.3 | 36.2
20 | CN(C)c1ccc(/C=c2\sc3nc4ccccc4n3c2=O)cc1 | > 100 | > 100 | > 100 | > 100 | > 100 | > 100 | > 100 | > 100 | > 100

— PubChem BioAssay (NCI)
